# Source: PMC7156458, “Synthetic biology based construction of biological activity-related library of fungal decalin-containing diterpenoid pyrones” (Nature Communications, 2020)
# Molecular target: Aβ42 (Homo sapiens, UniProt P05067)
# Assay: Th-T (thioflavin-T) assay of Aβ42 aggregation
# Type: biochemical
# Details: for Th-T assay plate reading, mean of three wells (Supplementary Fig. 47): source data, Ab alone and No Ab as controls
# Chain of Aβ42 (P05067 672-713): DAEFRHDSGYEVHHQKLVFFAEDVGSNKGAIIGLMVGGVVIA
smiles,measurement,setting,value
"C=C1CC[C@H]2[C@]3(C)C[C@H](C=C(C)C)O[C@H]3CC[C@]2(C)[C@@H]1Cc1c(O)c(C)c(C)oc1=O [Compound 6, subglutinol B]","Th-T fluorescence, mean of three wells","Aβ42 aggregation time course, reading M117",3.0425
same,"Th-T fluorescence, mean of three wells","Aβ42 aggregation time course, reading M118",3.0715
same,"Th-T fluorescence, mean of three wells","Aβ42 aggregation time course, reading M119",3.036
same,"Th-T fluorescence, mean of three wells","Aβ42 aggregation time course, reading M120",3.042
same,"Th-T fluorescence, mean of three wells","Aβ42 aggregation time course, reading M121",3.063
same,"Th-T fluorescence, mean of three wells","Aβ42 aggregation time course, reading M122",3.055
same,"Th-T fluorescence, mean of three wells","Aβ42 aggregation time course, reading M123",3.062
same,"Th-T fluorescence, mean of three wells","Aβ42 aggregation time course, reading M124",3.061
same,"Th-T fluorescence, mean of three wells","Aβ42 aggregation time course, reading M125",3.081
same,"Th-T fluorescence, mean of three wells","Aβ42 aggregation time course, reading M126",3.018
same,"Th-T fluorescence, mean of three wells","Aβ42 aggregation time course, reading M127",3.038
same,"Th-T fluorescence, mean of three wells","Aβ42 aggregation time course, reading M128",3.027
same,"Th-T fluorescence, mean of three wells","Aβ42 aggregation time course, reading M129",3.02
same,"Th-T fluorescence, mean of three wells","Aβ42 aggregation time course, reading M130",3.02
same,"Th-T fluorescence, mean of three wells","Aβ42 aggregation time course, reading M131",3.032
same,"Th-T fluorescence, mean of three wells","Aβ42 aggregation time course, reading M132",3.01
same,"Th-T fluorescence, mean of three wells","Aβ42 aggregation time course, reading M133",3.061
same,"Th-T fluorescence, mean of three wells","Aβ42 aggregation time course, reading M134",3.045
same,"Th-T fluorescence, mean of three wells","Aβ42 aggregation time course, reading M135",3.053
same,"Th-T fluorescence, mean of three wells","Aβ42 aggregation time course, reading M136",3.034
same,"Th-T fluorescence, mean of three wells","Supplementary Fig. 47, reading M137",3.021
same,"Th-T fluorescence, mean of three wells","Supplementary Fig. 47, reading M138",3.036
same,"Th-T fluorescence, mean of three wells","Supplementary Fig. 47, reading M139",3.036
same,"Th-T fluorescence, mean of three wells","Supplementary Fig. 47, reading M140",3.0121
same,"Th-T fluorescence, mean of three wells","Supplementary Fig. 47, reading M141",3.01
same,"Th-T fluorescence, mean of three wells","Supplementary Fig. 47, reading M142",2.999
same,"Th-T fluorescence, mean of three wells","Supplementary Fig. 47, reading M143",3.017
same,"Th-T fluorescence, mean of three wells","Supplementary Fig. 47, reading M144",3.0125
same,"Th-T fluorescence, mean of three wells","Supplementary Fig. 47, reading M145",3.0288
same,"Th-T fluorescence, mean of three wells","Supplementary Fig. 47 source data, measurement M37 of time course",3.017
same,"Th-T fluorescence, mean of three wells","Supplementary Fig. 47 source data, measurement M38 of time course",3.04
same,"Th-T fluorescence, mean of three wells","Supplementary Fig. 47 source data, measurement M39 of time course",3.05
same,"Th-T fluorescence, mean of three wells","Supplementary Fig. 47 source data, measurement M40 of time course",3.045
same,"Th-T fluorescence, mean of three wells","Supplementary Fig. 47 source data, measurement M41 of time course",3.085
same,"Th-T fluorescence, mean of three wells","Supplementary Fig. 47 source data, measurement M42 of time course",3.072
same,"Th-T fluorescence, mean of three wells","Supplementary Fig. 47 source data, measurement M43 of time course",3.079
same,"Th-T fluorescence, mean of three wells","Supplementary Fig. 47 source data, measurement M44 of time course",3.068
same,"Th-T fluorescence, mean of three wells","Supplementary Fig. 47 source data, measurement M45 of time course",3.111
same,"Th-T fluorescence, mean of three wells","Supplementary Fig. 47 source data, measurement M46 of time course",3.079
same,"Th-T fluorescence, mean of three wells","Supplementary Fig. 47 source data, measurement M47 of time course",3.097
same,"Th-T fluorescence, mean of three wells","Supplementary Fig. 47 source data, measurement M48 of time course",3.117
same,"Th-T fluorescence, mean of three wells","Supplementary Fig. 47 source data, measurement M49 of time course",3.11
same,"Th-T fluorescence, mean of three wells","Supplementary Fig. 47 source data, measurement M50 of time course",3.114
same,"Th-T fluorescence, mean of three wells","Supplementary Fig. 47 source data, measurement M51 of time course",3.119
same,"Th-T fluorescence, mean of three wells","Supplementary Fig. 47 source data, measurement M52 of time course",3.113
same,"Th-T fluorescence, mean of three wells","Supplementary Fig. 47 source data, measurement M53 of time course",3.12
same,"Th-T fluorescence, mean of three wells","Supplementary Fig. 47 source data, measurement M54 of time course",3.1191
same,"Th-T fluorescence, mean of three wells","Supplementary Fig. 47 source data, measurement M55 of time course",3.1238
same,"Th-T fluorescence, mean of three wells","Supplementary Fig. 47 source data, measurement M56 of time course",3.106
same,"Th-T assay plate reading, mean of three wells (Supplementary Fig. 47)",measurement M1,0.3106
same,"Th-T assay plate reading, mean of three wells (Supplementary Fig. 47)",measurement M2,0.3077
same,"Th-T assay plate reading, mean of three wells (Supplementary Fig. 47)",measurement M3,0.3313
same,"Th-T assay plate reading, mean of three wells (Supplementary Fig. 47)",measurement M4,0.3664
same,"Th-T assay plate reading, mean of three wells (Supplementary Fig. 47)",measurement M5,0.4514
same,"Th-T assay plate reading, mean of three wells (Supplementary Fig. 47)",measurement M6,0.4846
same,"Th-T assay plate reading, mean of three wells (Supplementary Fig. 47)",measurement M7,0.512
same,"Th-T assay plate reading, mean of three wells (Supplementary Fig. 47)",measurement M8,0.5981
same,"Th-T assay plate reading, mean of three wells (Supplementary Fig. 47)",measurement M9,0.6456
same,"Th-T assay plate reading, mean of three wells (Supplementary Fig. 47)",measurement M10,0.6881
same,"Th-T assay plate reading, mean of three wells (Supplementary Fig. 47)",measurement M11,0.7275
same,"Th-T assay plate reading, mean of three wells (Supplementary Fig. 47)",measurement M12,0.7567
same,"Th-T assay plate reading, mean of three wells (Supplementary Fig. 47)",measurement M13,0.7872
same,"Th-T assay plate reading, mean of three wells (Supplementary Fig. 47)",measurement M14,0.8218
same,"Th-T assay plate reading, mean of three wells (Supplementary Fig. 47)",measurement M15,0.8797
same,"Th-T assay plate reading, mean of three wells (Supplementary Fig. 47)",measurement M16,0.9731
same,"Th-T fluorescence, mean of three wells","reading M17, Supplementary Fig. 47 source data",1.192
same,"Th-T fluorescence, mean of three wells","reading M18, Supplementary Fig. 47 source data",1.512
same,"Th-T fluorescence, mean of three wells","reading M19, Supplementary Fig. 47 source data",1.858
same,"Th-T fluorescence, mean of three wells","reading M20, Supplementary Fig. 47 source data",2.193
same,"Th-T fluorescence, mean of three wells","reading M21, Supplementary Fig. 47 source data",2.479
same,"Th-T fluorescence, mean of three wells","reading M22, Supplementary Fig. 47 source data",2.615
same,"Th-T fluorescence, mean of three wells","reading M23, Supplementary Fig. 47 source data",2.7089
same,"Th-T fluorescence, mean of three wells","reading M24, Supplementary Fig. 47 source data",2.736
same,"Th-T fluorescence, mean of three wells","reading M25, Supplementary Fig. 47 source data",2.775
same,"Th-T fluorescence, mean of three wells","reading M26, Supplementary Fig. 47 source data",2.797
same,"Th-T fluorescence, mean of three wells","reading M27, Supplementary Fig. 47 source data",2.826
same,"Th-T fluorescence, mean of three wells","reading M28, Supplementary Fig. 47 source data",2.834
same,"Th-T fluorescence, mean of three wells","reading M29, Supplementary Fig. 47 source data",2.861
same,"Th-T fluorescence, mean of three wells","reading M30, Supplementary Fig. 47 source data",2.901
same,"Th-T fluorescence, mean of three wells","reading M31, Supplementary Fig. 47 source data",2.9009
same,"Th-T fluorescence, mean of three wells","reading M32, Supplementary Fig. 47 source data",2.941
same,"Th-T fluorescence, mean of three wells","reading M33, Supplementary Fig. 47 source data",2.954
same,"Th-T fluorescence, mean of three wells","reading M34, Supplementary Fig. 47 source data",2.9825
same,"Th-T fluorescence, mean of three wells","reading M35, Supplementary Fig. 47 source data",2.976
same,"Th-T fluorescence, mean of three wells","reading M36, Supplementary Fig. 47 source data",3.001
same,"Th-T fluorescence, mean of three wells","time course, reading M57",3.126
same,"Th-T fluorescence, mean of three wells","time course, reading M58",3.154
same,"Th-T fluorescence, mean of three wells","time course, reading M59",3.098
same,"Th-T fluorescence, mean of three wells","time course, reading M60",3.135
same,"Th-T fluorescence, mean of three wells","time course, reading M61",3.131
same,"Th-T fluorescence, mean of three wells","time course, reading M62",3.132
same,"Th-T fluorescence, mean of three wells","time course, reading M63",3.122
same,"Th-T fluorescence, mean of three wells","time course, reading M64",3.115
same,"Th-T fluorescence, mean of three wells","time course, reading M65",3.114
same,"Th-T fluorescence, mean of three wells","time course, reading M66",3.129
same,"Th-T fluorescence, mean of three wells","time course, reading M67",3.159
same,"Th-T fluorescence, mean of three wells","time-course reading M97, Supplementary Fig. 47 source data",3.103
same,"Th-T fluorescence, mean of three wells","time-course reading M98, Supplementary Fig. 47 source data",3.123
same,"Th-T fluorescence, mean of three wells","time-course reading M99, Supplementary Fig. 47 source data",3.102
same,"Th-T fluorescence, mean of three wells","time-course reading M100, Supplementary Fig. 47 source data",3.074
same,"Th-T fluorescence, mean of three wells","time-course reading M101, Supplementary Fig. 47 source data",3.118
same,"Th-T fluorescence, mean of three wells","time-course reading M102, Supplementary Fig. 47 source data",3.1
same,"Th-T fluorescence, mean of three wells","time-course reading M103, Supplementary Fig. 47 source data",3.088
same,"Th-T fluorescence, mean of three wells","time-course reading M104, Supplementary Fig. 47 source data",3.101
same,"Th-T fluorescence, mean of three wells","time-course reading M105, Supplementary Fig. 47 source data",3.114
same,"Th-T fluorescence, mean of three wells","time-course reading M106, Supplementary Fig. 47 source data",3.076
same,"Th-T fluorescence, mean of three wells","time-course reading M107, Supplementary Fig. 47 source data",3.094
same,"Th-T fluorescence, mean of three wells","time-course reading M108, Supplementary Fig. 47 source data",3.063
same,"Th-T fluorescence, mean of three wells","time-course reading M109, Supplementary Fig. 47 source data",3.057
same,"Th-T fluorescence, mean of three wells","time-course reading M110, Supplementary Fig. 47 source data",3.049
same,"Th-T fluorescence, mean of three wells","time-course reading M111, Supplementary Fig. 47 source data",3.101
same,"Th-T fluorescence, mean of three wells","time-course reading M112, Supplementary Fig. 47 source data",3.097
same,"Th-T fluorescence, mean of three wells","time-course reading M113, Supplementary Fig. 47 source data",3.03
same,"Th-T fluorescence, mean of three wells","time-course reading M114, Supplementary Fig. 47 source data",3.07
same,"Th-T fluorescence, mean of three wells","time-course reading M115, Supplementary Fig. 47 source data",3.098
same,"Th-T fluorescence, mean of three wells","time-course reading M116, Supplementary Fig. 47 source data",3.06
